For one assay, the system named is NCI-H716 cells. The experiment in a line: In vitro GLP-1 secretion-accelerating action: amount of active GLP-1 secreted (ELISA). Particulars: 1 hour; for Significant difference (p < 0.05) vs control group, amount of active GLP-1 secreted: 10 mM, Student's t-test; for Amount of active GLP-1 secreted (relative value to control group as 100), average value: cyclic dipeptide 10 mM with 10 μM Sitagliptin phosphate, group with no cyclic dipeptide = 100. Type of assay: cell-based. As to the method:
Among the cyclic dipeptides, 92 highly water-soluble cyclic dipeptides were used in the following experiment. In each well of a Poly-L-Lysine 96-well plate, NCI-H716 cells suspended in 100 μL of a DMEM (with 10% FBS, 2 mM glutamine, and 1% antibiotics added in advance) were seeded at 0.5×10^5 cells/well, and cultured in a CO2 incubator (manufactured by ESPEC CORP.) for 48 hours. After washing with PBS(+), 100 μL of a PBS(+) solution with each cyclic dipeptide at a final concentration of 10 mM and 10 μM of Sitagliptin phosphate added therein was added to the cells. After 1 hour, the resultant solution was recovered, and the amount of active GLP-1 in the solution was measured by using the ELISA kit. In the analysis, the amount of active GLP-1 for a group with no cyclic dipeptide added was defined as 100, and relative values thereto were used.
On the technique in general: In an ELISA, binding on a coated surface is turned into a signal by an enzyme label.

A further assay relates to C57/BL6J mice. The experiment in a line: In vivo plasma GLP-1 level-increasing action: plasma active GLP-1 level (ELISA) after oral administration. The settings on record: Table 15, Experiment 10, 10 mg/kg oral; for Significant difference (p < 0.05) vs control group, plasma active GLP-1 level: 30 minutes, Student's t-test; for Plasma active GLP-1 level (relative value to control group as 100), average value: blood 30 minutes after, 0.5% CMC-Na group = 100. Here is the method:
Seven-week-old male C57/BL6J mice were purchased from CLEA Japan, Inc. for use, and they were subjected to an experiment after 1 week of a habituation period.
After the habituation period, the mice were subjected to 5.5 hours of food deprivation and 2 hours of water deprivation. Thereafter, a cyclic dipeptide dissolved or suspended in a 0.5% CMC-Na aqueous solution in 10 mg/kg was orally administered to each mouse forcibly. After 30 minutes, the blood was collected from the abdominal vena cava under anesthesia, and 1 μL of heparin sodium and 1 μL of 10 mM Sitagliptin phosphate were added to each collected blood, which was then subjected to centrifugation at 8000 rpm for 10 minutes to recover the plasma, and the plasma active GLP-1 level was measured by using the ELISA kit. In the analysis, the active GLP-1 level for a group administered with 0.5% CMC-Na aqueous solution was defined as 100, and relative values thereto were used.

`O=C1N[C@@H](CO)C(=O)N[C@H]1CO` [compound 1, Cyclo(Ser-Ser)]: in the assay on NCI-H716 cells (Table 1, Experiment 1), the “Significant difference (p < 0.05) vs control group, amount of active GLP-1 secreted” value is given as “No” and the “Amount of active GLP-1 secreted (relative value to control group as 100), average value” turned out to be 124.
In the case of `O=C1CNC(=O)CN1` [compound 2, Cyclo(Gly-Gly)], in the assay on NCI-H716 cells (Table 5, Experiment 5), the “Significant difference (p < 0.05) vs control group, amount of active GLP-1 secreted” value is on record as “No” and the “Amount of active GLP-1 secreted (relative value to control group as 100), average value” is reported as 151.
Take `C[C@@H]1NC(=O)[C@H](C)NC1=O` [compound 3, Cyclo(Ala-Ala)]: in the assay on NCI-H716 cells (Table 1, Experiment 1), the “Significant difference (p < 0.05) vs control group, amount of active GLP-1 secreted” value is given as “No” and the “Amount of active GLP-1 secreted (relative value to control group as 100), average value” came out at 95.
For `O=C1NCC(=O)N2CCC[C@@H]12` [compound 4, cyclo-glycyl-proline], in the assay with NCI-H716 cells (Table 5, Experiment 5), the “Significant difference (p < 0.05) vs control group, amount of active GLP-1 secreted” value is given as “Yes” and the “Amount of active GLP-1 secreted (relative value to control group as 100), average value” was determined as 157.
With `C[C@H]1NC(=O)[C@@H]2CCCN2C1=O` [compound 5, Cyclo(D-Ala-Pro)], in the assay with NCI-H716 cells (Table 1, Experiment 1), the “Significant difference (p < 0.05) vs control group, amount of active GLP-1 secreted” value is “No” and the “Amount of active GLP-1 secreted (relative value to control group as 100), average value” is 113.
Regarding `O=C1[C@@H]2CCCN2C(=O)[C@@H]2CCCN12` [compound 6, Cyclo(Pro-Pro)], in the assay with NCI-H716 cells (Table 1, Experiment 1), the “Significant difference (p < 0.05) vs control group, amount of active GLP-1 secreted” value is listed as “No” and the “Amount of active GLP-1 secreted (relative value to control group as 100), average value” is given as 87.
In the same order, the values of `O=C1N[C@@H](Cc2ccccc2)C(=O)N[C@H]1CO` [compound 7, Cyclo(Phe-Ser)] are “No” and 106.
With `CC(C)[C@@H]1NC(=O)[C@@H]2CCCN2C1=O` [compound 10, Cyclo(Val-Pro)], in the assay on NCI-H716 cells (Table 1, Experiment 1), the “Significant difference (p < 0.05) vs control group, amount of active GLP-1 secreted” value is listed as “No” and the “Amount of active GLP-1 secreted (relative value to control group as 100), average value” stood at 95.
Taken in the same sequence, the figures for `CC(C)C[C@@H]1NC(=O)[C@@H]2CCCN2C1=O` [compound 19, cyclo-leucyl-proline] were “Yes” and 173.
Turning to `CC(C)C[C@@H]1NC(=O)CNC1=O` [compound 21, Cyclo(Gly-Leu)], in the assay on NCI-H716 cells (Table 5, Experiment 5), the “Significant difference (p < 0.05) vs control group, amount of active GLP-1 secreted” value is reported as “No” and the “Amount of active GLP-1 secreted (relative value to control group as 100), average value” was 131.
For the molecule `C[C@@H]1NC(=O)[C@H](CCC(N)=O)NC1=O` [compound 23, Cyclo(Ala-Gln)], in the assay with NCI-H716 cells (Table 5, Experiment 5), the “Significant difference (p < 0.05) vs control group, amount of active GLP-1 secreted” value is “No” and the “Amount of active GLP-1 secreted (relative value to control group as 100), average value” worked out at 99.
In the same order, the values of `NC(=O)CC[C@@H]1NC(=O)CNC1=O` [compound 24, Cyclo(Gln-Gly)] are “No” and 89.
Turning to `O=C1CNC(=O)[C@H](Cc2cnc[nH]2)N1` [compound 27, Cyclo(Gly-His)], in the assay with NCI-H716 cells (Table 5, Experiment 5), the “Significant difference (p < 0.05) vs control group, amount of active GLP-1 secreted” value is “No” and the “Amount of active GLP-1 secreted (relative value to control group as 100), average value” is given as 82.
Turning to `O=C(O)C[C@@H]1NC(=O)CNC1=O` [compound 32, Cyclo(Asp-Gly)], in the assay on NCI-H716 cells (Table 5, Experiment 5), the “Significant difference (p < 0.05) vs control group, amount of active GLP-1 secreted” value is given as “Yes” and the “Amount of active GLP-1 secreted (relative value to control group as 100), average value” was determined as 12.
Take `NC(=O)CC[C@@H]1NC(=O)CNC1=O` [compound 36, Cyclo(Gln-Gly)]: in the assay with NCI-H716 cells (Table 5, Experiment 5), the “Significant difference (p < 0.05) vs control group, amount of active GLP-1 secreted” value is “No” and the “Amount of active GLP-1 secreted (relative value to control group as 100), average value” amounted to 75.
On to `NCCCCC1NC(=O)C(CCCCN)NC1=O` (stereo not shown) [compound 40, Cyclo(Lys-Lys)], for which, in the assay on NCI-H716 cells (Table 1, Experiment 1), the “Significant difference (p < 0.05) vs control group, amount of active GLP-1 secreted” value was “No” and the “Amount of active GLP-1 secreted (relative value to control group as 100), average value” amounted to 164.
Taken in the same sequence, the figures for `O=C(O)CCC1NC(=O)C2CCCN2C1=O` (stereo not shown) [compound 45, Cyclo(Glu-Pro)] were “No” and 145.
In the case of `O=C1NC(CO)C(=O)N2CCCC12` (stereo not shown) [compound 46, Cyclo(Ser-Pro)], in the assay on NCI-H716 cells (Table 2, Experiment 2), the “Significant difference (p < 0.05) vs control group, amount of active GLP-1 secreted” value was “No” and the “Amount of active GLP-1 secreted (relative value to control group as 100), average value” came to 139.
Turning to `CC[C@H](C)[C@@H]1NC(=O)[C@@H]2CCCN2C1=O` [compound 47, Cyclo(Ile-Pro)], in the assay with NCI-H716 cells (Table 2, Experiment 2), the “Significant difference (p < 0.05) vs control group, amount of active GLP-1 secreted” value is “No” and the “Amount of active GLP-1 secreted (relative value to control group as 100), average value” is listed as 79.
Consider `O=C1N[C@@H](Cc2c[nH]c3ccccc23)C(=O)N2CCC[C@@H]12` [compound 57, Cyclo(Trp-Pro)], for which, in the assay on NCI-H716 cells (Table 2, Experiment 2), the “Significant difference (p < 0.05) vs control group, amount of active GLP-1 secreted” value is reported as “No” and the “Amount of active GLP-1 secreted (relative value to control group as 100), average value” was 81.
In the case of `CC[C@H](C)[C@@H]1NC(=O)[C@H](Cc2cnc[nH]2)NC1=O` [compound 148, cyclo-isoleucyl-histidine], in the assay with C57/BL6J mice, the “Significant difference (p < 0.05) vs control group, plasma active GLP-1 level” value is reported as “Yes” and the “Plasma active GLP-1 level (relative value to control group as 100), average value” amounted to 259.
As for `CC[C@H](C)[C@@H]1NC(=O)[C@H](CCCCN)NC1=O` [compound 150, cyclo-isoleucyl-lysine], in the assay on C57/BL6J mice, the “Significant difference (p < 0.05) vs control group, plasma active GLP-1 level” value is reported as “Yes” and the “Plasma active GLP-1 level (relative value to control group as 100), average value” was 282.
For the molecule `CC(C)CC1NC(=O)C(CO)NC1=O` (stereo not shown) [compound 151, cyclo-seryl-leucine], in the assay on C57/BL6J mice, the “Significant difference (p < 0.05) vs control group, plasma active GLP-1 level” value is “Yes” and the “Plasma active GLP-1 level (relative value to control group as 100), average value” was determined as 259.
In the case of `CC(C)CC1NC(=O)C(CCC(N)=O)NC1=O` (stereo not shown) [compound 152, cyclo-glutaminyl-leucine], in the assay with C57/BL6J mice, the “Significant difference (p < 0.05) vs control group, plasma active GLP-1 level” value was “Yes” and the “Plasma active GLP-1 level (relative value to control group as 100), average value” came to 282.
Taken in the same sequence, the figures for `CC(C)[C@@H]1NC(=O)CNC1=O` [compound 155, Cyclo(Val-Gly)] were “No” and 55.
In the same order, the values of `CCC(C)C1NC(=O)CNC1=O` (stereo not shown) [compound 156, Cyclo(Ile-Gly)] are “No” and 145.
Taken in the same sequence, the figures for `CSCCC1NC(=O)C(C(C)C)NC1=O` (stereo not shown) [compound 160, cyclo-methionyl-valine] were “Yes” and 304.
As for `CC[C@H](C)[C@@H]1NC(=O)[C@H]([C@H](C)O)NC1=O` [compound 161, cyclo-isoleucyl-threonine], in the assay on C57/BL6J mice, the “Significant difference (p < 0.05) vs control group, plasma active GLP-1 level” value was “Yes” and the “Plasma active GLP-1 level (relative value to control group as 100), average value” stood at 282.
Taken in the same sequence, the figures for `CC[C@H](C)[C@@H]1NC(=O)[C@H](CC(=O)O)NC1=O` [compound 162, cyclo-isoleucyl-aspartic acid] were “Yes” and 259.
Taken in the same sequence, the figures for `CC[C@H](C)C1NC(=O)[C@H](CC(N)=O)NC1=O` (stereo partly shown) [compound 163, cyclo-asparaginyl-isoleucine] were “Yes” and 327.
Taken in the same sequence, the figures for `CSCC[C@@H]1NC(=O)[C@H]([C@H](C)O)NC1=O` [compound 169, cyclo-methionyl-threonine] were “Yes” and 282.
Regarding `CC1NC(=O)C(CS)NC1=O` (stereo not shown) [compound 177, cyclo-alanyl-cysteine], in the assay on C57/BL6J mice, the “Significant difference (p < 0.05) vs control group, plasma active GLP-1 level” value is reported as “Yes” and the “Plasma active GLP-1 level (relative value to control group as 100), average value” is on record as 282.
As for `O=C1CNC(=O)C(CS)N1` (stereo not shown) [compound 178, cyclo-glycyl-cysteine], in the assay with C57/BL6J mice, the “Significant difference (p < 0.05) vs control group, plasma active GLP-1 level” value is on record as “Yes” and the “Plasma active GLP-1 level (relative value to control group as 100), average value” is recorded as 282.
Take `O=C(O)CCC1NC(=O)C(CS)NC1=O` (stereo not shown) [compound 179, cyclo-glutamyl-cysteine]: in the assay on C57/BL6J mice, the “Significant difference (p < 0.05) vs control group, plasma active GLP-1 level” value was “Yes” and the “Plasma active GLP-1 level (relative value to control group as 100), average value” was 304.
In the same order, the values of `O=C1N[C@@H](CS)C(=O)N[C@H]1CO` [compound 180, cyclo-seryl-cysteine] are “Yes” and 259.

For the origin of these results see patent US20170143701A1, “CARBOHYDRATE METABOLISM-AMELIORATING AGENT” (SUNTORY HOLDINGS LIMITED, priority 2014, published 2017).
